# Measurements taken from patent US20150368617A1, “METHOD FOR FORMING ENDOTHELIAL CELLS” (Korea Advanced Institute of Science and Technology (KAIST), priority 2012, published 2015).
# What was measured:
# Format in all cases: cell-based, mouse
# Flk1+ MPCs = experiment: EC colony assay; conditions: 36 hrs; VEGF-A 50 ng/ml, Y27632 10 μM
# Protocol: The Flk1+ MPCs were plated onto Matrigel-coated plate at a density of 4,000 cells/cm^2, and cultured in differentiation medium supplemented with VEGF-A165 (50 ng/ml) and Y27632 (10┌M). At 36 hrs later, the number of CD144+ EC colonies was counted. Clustering of >5 CD144+ ECs was regarded as one EC colony.
# CD144+ ECs = experiment: FACS phenotypic analysis of EC and MC markers at day 6.5
# Protocol: FIGS. 12A to 12B-6. ROCK suppression-induced ECs express EC-specific genes. (FIG. 12A) Diagram of cell preparations for phenotype analyses of EC and MC differentiation. Flk1+ MPCs were incubated with only VEGF-A (50 ng/ml) (Control) and VEGF-A (50 ng/ml) plus Y27632 (10┌ M) (Y72632) for 2 days. (FIG. 12B-1 to FIG. 12B-6) Representative FACS analysis for phenotypic markers in CD144+ cells; pan-endothelial, mural, and arterial-, venous- and lymphatic EC.
# Cells were harvested with 0.25% trypsin-EDTA (Invitrogen) or dissociation buffer (Invitrogen) and resuspended in HBSS/2% FBS at 1×10^6 cells per 100┌ l. The cells were incubated for 20 min with the following antibodies: biotin-conjugated anti-mouse Flk1 (clone AVAS12a1, eBioscience), allophycocyanin (APC)-conjugated anti-mouse CD140a (clone APA5, eBioscience), phycoerythrin(PE)-conjugated anti-mouse CD31 (clone 390, eBioscience), Alexa Fluor® 647-conjugated anti-mouse CD144 (clone BV13, eBioscience), PE-conjugated anti-mouse D114 (clone HMD4-1, Biolegend), PE-conjugated anti-mouse Tie2 (clone TEK4, eBioscience), PE-conjugated anti-mouse Endoglin (clone MJ7/18, Biolegend), anti-mouse ICAM2 (clone 3C4, Biolegend), APC-conjugated anti-mouse CD140b (clone APBS, eBioscience), PE-conjugated anti-mouse LYVE1 (clone ALY7, eBioscience), anti-mouse VEGFR3 (goat polyclonal, R&D systems), anti-mouse EphB4 (clone VEB4-7E4, Hycult biotech), and PE-conjugated anti-mouse Notch1 (clone HMN1-12, Biolegend). After washing in HBSS/2% FBS twice, the cells were incubated with the following secondary antibodies: PE-conjugated streptavidin (eBioscience), PE-conjugated anti-rat IgG2a (eBioscience), and FITC-conjugated anti-goat IgG (Invitrogen). Dead cells were excluded by 7-aminoactinomycin D (7-AAD, Invitrogen).
# ICAM2+ ECs [1] = experiment: Cell cycle FACS analysis in ICAM2+ ECs; conditions: 12 hrs after plating
# Protocol: FIGS. 15A-15D. ROCK suppression continuously promotes the expansion of ECs. ICAM2+ ECs were further incubated with PBS (Control), Y27632 (10┌ M), VEGF-A (50 ng/ml; VA) or Y27632 (10┌ M) plus VEGF-A (50 ng/ml) for 2 days, and analyses were performed at day 8.5. (FIG. 15A) Representative FACS analysis showing cell cycle in ICAM2+ ECs at 12 hrs. (FIG. 15B) % of ICAM2+ ECs under each phase of cell cycle at 12 hrs. Each group, n=3. *p<0.01 versus Control; ^#p<0.01 versus VEGF-A. (FIG. 15C) Representative FACS analysis of Annexin V+/PI− apoptotic ECs. (FIG. 15D) % of Annexin V+/PI− ECs. Each group, n=3. *p<0.01 versus Control.
# Apoptosis assay was performed as previously described. To determine the cell cycle, BrdU/7-AAD cell cycle analysis was performed according to the manufacturer's instructions (BD Pharmingen™). Briefly, cells were incubated with BrdU (1 mM) for 1 hr, dissociated with dissociation buffer, and stained with anti-CD144 antibody. The cells were then fixed, permeabilized, and fixed once more, followed by 1 hr incubation with DNase I (200 U) at 37┌ C. After incubation with FITC-conjugated anti-BrdU antibody for 20 min at RT, the cells were stained with 7-AAD. The cells were analyzed by FACS Aria II and the data were analyzed using FlowJo software.
# ICAM2+ ECs [2] = experiment: Cell adhesion assay, ICAM2+ ECs; conditions: 6 hrs after plating; in the presence of VEGF-A
# Protocol: Sorted Flk1+ MPCs or ICAM2+ ECs were plated onto Matrigel coated plates at a density of 10,000 cells/cm^2. Six hrs after plating, non-adherent cells were removed by washing and the cell number of adherent cells was counted following trypsinization. The percentage of adherent cells was calculated as (counted cell number/initial seeded cell number)×100.
structure (smiles),measurement,setting,value
C[C@@H](N)[C@H]1CC[C@H](C(=O)Nc2ccncc2)CC1 [Y27632],number of EC colonies and cell number in each colony,Flk1+ MPCs,increased
same,"population of CD144+ ECs expressing pan-endothelial cell surface markers (Flk1, Tie2, endoglin and ICAM2) compared to control",CD144+ ECs,~2.0 fold
same,population of CD144+ ECs that express D114 (arterial),CD144+ ECs,4.6 fold
same,population of CD144+ ECs that express EphB4 (venous),CD144+ ECs,2.4 fold
same,population of CD144+ ECs that express LYVE-1 (lymphatic),CD144+ ECs,2.1 fold
same,population of CD144+ ECs that express Notch1 (arterial),CD144+ ECs,2.4 fold
same,population of CD144+ ECs that express VEGFR3 (lymphatic),CD144+ ECs,3.8 fold
same,populations of cells expressing αSMA and CD140b,CD144+ ECs,markedly reduced
same,increase of percentage of cells in S phase compared to control,ICAM2+ ECs [1],~1.8 fold
same,adhesion of ICAM2+ ECs onto the plate,ICAM2+ ECs [2],1.3 fold
